Values after ≈ are worked out from the molar mass of the structure shown.
Legend:
[1] = tested on: M. tuberculosis H37Rv-LP; design: method as in PMID 35262374, PMID 29035551; conditions: given in Figure 1A; cited from earlier work
[2] = tested on: M. tuberculosis H37Rv (Erdman); design: method as in PMID 31511370; conditions: given in Figure 1A; cited from earlier work
[3] = tested on: M. tuberculosis qcrCAB (wt); design: method as in PMID 31511370; conditions: given in Figure 1A; cited from earlier work
[4] = in vitro; conditions: human
[5] = tested on: Mycobacterium avium 2285R (rough); test: Antimicrobial spectrum MIC, M. avium rough; type: cell-based
[6] = in vitro; conditions: human; remark: listed apart in the source
[7] = Microsomal stability, mouse liver microsomes (MLM); type: in vitro ADME; conditions: male, BALB/c, pH 7.4; for half-life at 6 μM: mouse liver microsomes, read-out: MLM t1/2
Procedure: (§1) 1.5. Microsomal stability
(§2) Test compound (6 μM) was incubated at 37 °C with male BALB/c mouse liver microsomes or mixed gender human liver microsomes (Xenotech LLC; 0.5 mg /mL, […] potassium phosphate buﬀer, pH 7.4) and the reaclon started with addilon of excess NADPH (2 mM, pH 7.4). Samples (35 µL) were removed at lme 0, 5, 10, 20, 30, and 60 min and mixed with 35 µL of acetonitrile, methanol, wate r s o l u lon (2:1:1) containing […] internal standard terfenadine and 0.05% v/v acelc acid. The samples were centrifuged at 4000 rpm for 10 min and the supernatant was analyzed using a 1100 HPLC and Single Quad 6120 (Agilent, USA). Compounds were tested in duplic ate, and an exponenlal decay curve ﬁt was used on the ralo of peak area of test compound to internal standard at each lme point to calculate the rate constant (k). The rate of intrinsic clearance (CLint) of each test compound was then calculated using the following equalon: CLint (mL/min/mg) = k x V where V was mL/mg protein. Verapamil (6 μM) was used as a posilve control. Incubalon of each compound with microsomes in the absence of NADPH and analyzed at 0 and 60 min was used as the negalve control.
(§3) The human biological samples were sourced ethically, and their research use was in accord with the terms of the informed consents.

[8] = tested on: Mycobacterium smegmatis mc2155; type: cell-based
[9] = tested on: Mycobacterium abscessus 103R; test: Antimicrobial spectrum MIC, M. abscessus; type: cell-based
[10] = tested on: M. tuberculosis H37Rv (ATCC 27294); test: MIC by resazurin reduction microplate assay (REMA); type: cell-based; conditions: Mycobacterium tuberculosis, converted from μg/mL to μM
[11] = tested on: Escherichia coli RFM 795; test: Antimicrobial spectrum MIC, E. coli; type: cell-based; conditions: Escherichia coli RFM 795 (lptD mutation)
[12] = tested on: H37Rv-LP (ATCC 25618) inside THP-1 cells; test: microbe, parasite or virus in culture; type: cell-based; conditions: Mycobacterium tuberculosis, 72 hours; for IC50: growth of H37Rv-LP inside THP-1 cells inhibited by 50%, read-out: Intracellular IC50; for IC90: growth of H37Rv-LP inside THP-1 cells inhibited by 90%, read-out: Intracellular IC90
[13] = in vitro; conditions: human; remark: listed apart in the source
[14] = tested on: Staphylococcus aureus (ATCC 29213); test: Antimicrobial spectrum MIC, S. aureus; type: cell-based
[15] = tested on: Mycobacterium avium 2285S (smooth); test: Antimicrobial spectrum MIC, M. avium smooth; type: cell-based
[16] = tested on: M. tuberculosis H37Rv-LP (ATCC 25618); test: microbe, parasite or virus in culture; type: cell-based; conditions: Mycobacterium tuberculosis, 120 h, concentration inhibiting 90% of growth, 5 days, read-out: MIC parental wild-type strain H37Rv-LP
[17] = Microsomal stability, human liver microsomes (HLM); type: in vitro ADME; conditions: both sexes, pH 7.4; for half-life at 6 μM: human liver microsomes, read-out: HLM t1/2
Procedure: as §1, §2, §3

[18] = in vitro; conditions: African green monkey
[19] = in vitro; conditions: African green monkey; remark: listed apart in the source
[20] = tested on: M. tuberculosis H37Rv-LP (ATCC 25618); test: ATP depletion assay (BacTiter-Glo); type: cell-based, Mycobacterium tuberculosis; conditions: compared to the positive control Q203

Row | Structure (SMILES) | MIC H37Rv-LP [1] | CC50 at 72 h [4] | CIM 2285R [5] | CC50 at 72 h ([6]; CC50 HepG2+Gal) | CC50 at 72 h ([6]; CC50 HepG2+Glu) | microsomal CLint at 6 μM ([7]; mouse, microsomes) | half-life at 6 μM [7] | CIM mc2155 [8] | CIM 103R [9] | MIC [10] | CIM RFM 795 [11] | IC50 [12] | IC90 [12] | CC50 at 72 h [13] | CIM 29213 [14] | CIM 2285S [15] | MIC [16] | microsomal CLint at 6 μM ([17]; human, microsomes) | half-life at 6 μM [17] | other results
1 | FC(F)(F)c1ccc(CCNc2cc(-c3ccccn3)nc3ncnn23)cc1 [1 (TAP)] | 1.4 µM (≈ 0.538 µg/mL) |  |  |  |  |  |  |  |  |  |  |  |  |  |  |  |  |  |  | 
2 | CCc1nc2ccc(C)cc2n1CCCNc1ccccc1 [2 (FABA)] | 0.056 µM (≈ 0.0164 µg/mL) |  |  |  |  |  |  |  |  |  |  |  |  |  |  |  |  |  |  | 
3 | CCc1nc(NCCCc2ccccc2)c2cc(C)sc2n1 [3 (CWHM-1023)] |  |  |  |  |  |  |  |  |  |  |  |  |  |  |  |  |  |  |  | IC50 [2]: 42 nM; IC50 [3]: 25 nM
4 | Cc1nc(NCCCc2ccccc2)c2cc(I)ccc2n1 [18d] |  | > 20 µM | > 100 µM | 13 µM | 20.3 µM | 202 µL/min/mg | 6.9 min | > 12.4 µM | > 100 µM | 1.6 µM (≈ 0.645 µg/mL) | > 100 µM | 470 nM | 1200 nM | 18.3 µM | > 100 µM | > 100 µM | 0.58 µM (≈ 0.234 µg/mL) | 243 µL/min/mg | 5.7 min | remaining at 5 min, 6 μM ([7]; mouse, microsomes): 63%; remaining at 20 min, 6 μM ([17]; human, microsomes): 9%
5 | Cc1nc(NCCc2ccccc2)c2cc(I)ccc2n1 [9d] |  |  |  | 5.1 µM | 10.9 µM |  |  |  |  | 3.2 µM (≈ 1.25 µg/mL) |  |  |  |  |  |  | 0.95 µM (≈ 0.37 µg/mL) |  |  | CC50 at 72 h [18]: 11.7 µM; CC50 at 72 h [19]: 11.7 µM
6 | Cc1nc(NCCCc2ccccc2)c2cc(Br)ccc2n1 [18c] |  | 13.8 µM | > 100 µM | 9.7 µM | 19.1 µM | 354 µL/min/mg | 3.9 min | > 56.1 µM | > 100 µM | 0.45 µM (≈ 0.16 µg/mL) | > 100 µM | 160 nM | 450 nM | 13.2 µM | > 100 µM | > 100 µM | 0.28 µM (≈ 0.0998 µg/mL) | 184 µL/min/mg | 7.5 min | ATP depletion profile [20]: none of the selected molecules produced a significant ATP depletion profile; remaining at 20 min, 6 μM ([7]; mouse, microsomes): 2%; remaining at 0.5 h, 6 μM ([17]; human, microsomes): 6%
